Experimental data: BigSolDB 2.1

Conditions: in isopropanol

C=NCC#N
Conditions | solubility (mole fraction)
278.15 K | 0.00069
283.15 K | 0.000826
288.15 K | 0.00106
293.15 K | 0.00129
298.15 K | 0.00153
303.15 K | 0.00188
308.15 K | 0.00229
313.15 K | 0.00279
318.15 K | 0.00338
323.15 K | 0.00411
